Source: PubChem BioAssay (NCI)
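Compound exposure: 48 hours, 5 concentrations, 96-well plates. TGI: total growth inhibition.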

What was measured:
Assay in all cases: inhibition of tumour cell growth, NCI panel, 48 h
786-0 renal = test system: 786-0 renal
A498 renal = test system: A498 renal
A549 NSCLC = test system: A549 NSCLC
ACHN renal = test system: ACHN renal
BT-549 breast = test system: BT-549 breast
CAKI-1 renal = test system: CAKI-1 renal
COLO 205 colon = test system: COLO 205 colon
DU-145 prostate = test system: DU-145 prostate
EKVX NSCLC = test system: EKVX NSCLC
HCC-2998 colon = test system: HCC-2998 colon
HCT-116 colon = test system: HCT-116 colon
HCT-15 colon = test system: HCT-15 colon
HL-60(TB) leukemia = test system: HL-60(TB) leukemia
HOP-62 NSCLC = test system: HOP-62 NSCLC
HOP-92 NSCLC = test system: HOP-92 NSCLC
HS 578T breast = test system: HS 578T breast
HT29 colon = test system: HT29 colon
IGROV1 ovarian = test system: IGROV1 ovarian
K-562 leukemia = test system: K-562 leukemia
KM12 colon = test system: KM12 colon
M14 melanoma = test system: M14 melanoma
MALME-3M melanoma = test system: MALME-3M melanoma
MCF7 breast = test system: MCF7 breast
MDA-MB-231 breast = test system: MDA-MB-231 breast
MDA-MB-435 = test system: MDA-MB-435
MDA-N = test system: MDA-N
MOLT-4 leukemia = test system: MOLT-4 leukemia
NCI-H226 lung = test system: NCI-H226 lung
NCI-H23 lung = test system: NCI-H23 lung
NCI-H460 lung = test system: NCI-H460 lung
NCI-H522 lung = test system: NCI-H522 lung
NCI/ADR-RES ovarian = test system: NCI/ADR-RES ovarian
OVCAR-3 ovarian = test system: OVCAR-3 ovarian
OVCAR-4 ovarian = test system: OVCAR-4 ovarian
OVCAR-5 ovarian = test system: OVCAR-5 ovarian
OVCAR-8 ovarian = test system: OVCAR-8 ovarian
PC-3 prostate = test system: PC-3 prostate
RPMI-8226 leukemia = test system: RPMI-8226 leukemia
RXF 393 renal = test system: RXF 393 renal
SF-268 CNS = test system: SF-268 CNS
SF-295 CNS = test system: SF-295 CNS
SF-539 CNS = test system: SF-539 CNS
SK-MEL-2 melanoma = test system: SK-MEL-2 melanoma
SK-MEL-28 melanoma = test system: SK-MEL-28 melanoma
SK-MEL-5 melanoma = test system: SK-MEL-5 melanoma
SK-OV-3 ovarian = test system: SK-OV-3 ovarian
SN12C renal = test system: SN12C renal
SNB-19 CNS = test system: SNB-19 CNS
SNB-75 CNS = test system: SNB-75 CNS
SR leukemia = test system: SR leukemia
SW-620 colon = test system: SW-620 colon
T-47D breast = test system: T-47D breast
TK-10 renal = test system: TK-10 renal
U251 CNS = test system: U251 CNS
UACC-257 melanoma = test system: UACC-257 melanoma
UACC-62 melanoma = test system: UACC-62 melanoma
UO-31 renal = test system: UO-31 renal
CCRF-CEM leukemia = test system: CCRF-CEM leukemia
LOX IMVI melanoma = test system: LOX IMVI melanoma

Measured: TGI

NS(=O)(=O)c1ccc(NCc2cnc3ccccc3c2)cc1
3.96 µM: HL-60(TB) leukemia
not listed: CCRF-CEM leukemia | LOX IMVI melanoma
> 100 µM: all other assays above

COc1cc(C2c3cc4c(cc3OC(O)C2C)OCO4)cc(OC)c1O (stereo unspecified)
5.22 µM: MDA-MB-435
26 µM: SNB-75 CNS
> 60 µM: M14 melanoma
> 75.3 µM: SN12C renal
62.8 µM: U251 CNS
80.6 µM: A498 renal
49.5 µM: HCC-2998 colon
89.3 µM: MDA-MB-231 breast
64.3 µM: NCI-H226 lung
46.4 µM: HS 578T breast
30.6 µM: SF-539 CNS
33.9 µM: SF-295 CNS
45.8 µM: COLO 205 colon
27.4 µM: OVCAR-3 ovarian
> 43 µM: RXF 393 renal
> 91.6 µM: SK-MEL-28 melanoma
> 51.6 µM: SK-MEL-5 melanoma
13.3 µM: NCI-H522 lung
38.3 µM: HCT-116 colon
> 94.3 µM: HOP-92 NSCLC
29.4 µM: MALME-3M melanoma
> 96.5 µM: UO-31 renal
57.4 µM: TK-10 renal
23.4 µM: NCI/ADR-RES ovarian
> 70.5 µM: NCI-H460 lung
5.06 µM: MDA-N
55.7 µM: SK-OV-3 ovarian
> 81.9 µM: EKVX NSCLC
20.2 µM: HL-60(TB) leukemia
98.9 µM: HOP-62 NSCLC
> 68.6 µM: T-47D breast
> 63.3 µM: HT29 colon
52.4 µM: UACC-62 melanoma
> 57.4 µM: HCT-15 colon
> 46.4 µM: SNB-19 CNS
> 100 µM: all other assays above
